Patent US10208037B2, “Toll-like receptor-7 and -8 modulatory 1H imidazoquinoline derived compounds” (The University of Kansas, priority 2011, dated 2019)

What was measured:
Format in all cases: cell-based
[1] = tested on: TLR7 and TLR8-induced cytokine and chemokine release; experiment: Inhibition of TLR7- and TLR8-mediated cytokine and chemokine production in human PBMCs; conditions: hPBMCs
Protocol: FIGS. 22A-[…] illustrate inhibition of TLR7-mediated (FIGS. 22A-22D) and TLR8-mediated (FIGS. 22E-[…]) proinflammatory cytokine production in human peripheral blood mononuclear cells by chloroquine or 47a. Proinflammatory cytokines were assayed by cytokine bead array methods after incubation of hPBMCs with graded concentrations of the test compound for 12 h in the presence of 10 μg/ml of either CL075 (TLR8 agonist) or gardiquimod (TLR7 agonist). FIGS. 23A-23D illustrate inhibition of TLR7-mediated (FIGS. 23A-23B) and TLR8-mediated (FIGS. 23C-3D) chemokine production in human peripheral blood mononuclear cells by chloroquine or 47a. Chemokines were assayed by cytokine bead array methods after incubation of hPBMCs with graded concentrations of the test compound for 12 h in the presence of 10 μg/ml of either CL075 (TLR8 agonist) or gardiquimod (TLR7 agonist). Aliquots (10^6 cells in 100 μL) of hPBMCs isolated from blood obtained from healthy human donors after informed consent by conventional Ficoll-Hypaque gradient centrifugation were stimulated for 12 h with graded concentrations of test compounds. The supernatant was isolated by centrifugation, diluted 1:20, and cytokines and chemokines were assayed in triplicate using analyte-specific cytokine/chemokine bead array assays as reported by us previously.^74

TLR7 [2] = biological target: T1, TLR7 (Homo sapiens, UniProt Q9NYK1); experiment: TLR7 reporter gene assay, antagonism (gardiquimod as agonist)
T1 construct: expressed in transfected cells; host or cells: HEK293 (HEK-Blue-7 cells)
T1 sequence (Q9NYK1 27-1049): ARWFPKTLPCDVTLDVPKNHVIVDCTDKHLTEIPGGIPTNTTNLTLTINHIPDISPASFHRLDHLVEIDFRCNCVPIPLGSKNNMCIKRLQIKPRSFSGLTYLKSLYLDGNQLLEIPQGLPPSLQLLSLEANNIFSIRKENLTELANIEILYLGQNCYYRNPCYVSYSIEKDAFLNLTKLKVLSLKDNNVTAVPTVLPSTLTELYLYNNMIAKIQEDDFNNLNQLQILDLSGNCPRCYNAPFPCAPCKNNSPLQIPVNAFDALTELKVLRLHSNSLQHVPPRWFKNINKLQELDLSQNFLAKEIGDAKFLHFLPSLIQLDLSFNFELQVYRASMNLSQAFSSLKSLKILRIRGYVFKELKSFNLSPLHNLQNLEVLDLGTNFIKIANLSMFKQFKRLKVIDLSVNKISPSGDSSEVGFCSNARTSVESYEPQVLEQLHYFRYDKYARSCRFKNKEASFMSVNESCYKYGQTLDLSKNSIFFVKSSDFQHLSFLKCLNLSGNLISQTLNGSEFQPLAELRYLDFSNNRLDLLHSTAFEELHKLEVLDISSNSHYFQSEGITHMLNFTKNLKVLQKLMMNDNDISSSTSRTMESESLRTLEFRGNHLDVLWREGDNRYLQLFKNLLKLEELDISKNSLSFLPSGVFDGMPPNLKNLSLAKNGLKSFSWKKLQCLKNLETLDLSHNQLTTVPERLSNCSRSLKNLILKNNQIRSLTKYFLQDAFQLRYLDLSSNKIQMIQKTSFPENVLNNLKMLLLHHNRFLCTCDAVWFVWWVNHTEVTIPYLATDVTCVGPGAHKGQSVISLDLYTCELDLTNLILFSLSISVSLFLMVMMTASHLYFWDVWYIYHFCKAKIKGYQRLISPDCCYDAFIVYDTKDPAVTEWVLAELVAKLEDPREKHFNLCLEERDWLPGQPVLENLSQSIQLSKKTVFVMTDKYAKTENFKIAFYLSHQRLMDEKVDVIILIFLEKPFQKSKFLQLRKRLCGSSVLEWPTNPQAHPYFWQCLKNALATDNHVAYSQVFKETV
Excerpt: (§1) The induction of NF-κB was quantified using HEK-Blue-3, HEK-Blue-7 and HEK-Blue-8 cells as previously described by us.^8,24,51 HEK293 cells were stably transfected with human TLR3 (or human TLR7 or human TLR8), MD2, and secreted alkaline phosphatase (sAP), and were maintained in HEK-Blue™ Selection medium containing zeocin and normocin. Stable expression of secreted alkaline phosphatase (sAP) under control of NF-κB/AP-1 promoters is inducible by the TLR3 (or TLR7 or TLR8) agonists, and extracellular sAP in the supernatant is proportional to NF-κB induction. HEK-Blue cells were incubated at a density of ˜10^5 cells/ml in a volume of 80 μl/well, in 384-well, flat-bottomed, cell culture-treated microtiter plates until confluency was achieved, and subsequently graded concentrations of stimuli. sAP was assayed spectrophotometrically using an alkaline phosphatase-specific chromogen (present in HEK-detection medium as supplied by the vendor) at 620 nm.
(§2) Antagonism assays were done as described by us earlier^73 using the following agonists at a constant concentration: TLR3 Poly(I:C) (10 ng/mL); TLR7: gardiquimod (1 μg/mL); TLR8: CL075 (1 μg/mL) mixed with graded concentrations of the test compounds.

TLR8 [3] = biological target: T2, TLR8 (Homo sapiens, UniProt Q9NR97); experiment: TLR8 reporter gene assay, antagonism (CL075 as agonist); conditions: for IC50: agonist CL075 1 μg/mL, ND = not detected
T2 construct: expressed in transfected cells; host or cells: HEK293 (HEK-Blue-8 cells)
T2 sequence (Q9NR97 27-1041): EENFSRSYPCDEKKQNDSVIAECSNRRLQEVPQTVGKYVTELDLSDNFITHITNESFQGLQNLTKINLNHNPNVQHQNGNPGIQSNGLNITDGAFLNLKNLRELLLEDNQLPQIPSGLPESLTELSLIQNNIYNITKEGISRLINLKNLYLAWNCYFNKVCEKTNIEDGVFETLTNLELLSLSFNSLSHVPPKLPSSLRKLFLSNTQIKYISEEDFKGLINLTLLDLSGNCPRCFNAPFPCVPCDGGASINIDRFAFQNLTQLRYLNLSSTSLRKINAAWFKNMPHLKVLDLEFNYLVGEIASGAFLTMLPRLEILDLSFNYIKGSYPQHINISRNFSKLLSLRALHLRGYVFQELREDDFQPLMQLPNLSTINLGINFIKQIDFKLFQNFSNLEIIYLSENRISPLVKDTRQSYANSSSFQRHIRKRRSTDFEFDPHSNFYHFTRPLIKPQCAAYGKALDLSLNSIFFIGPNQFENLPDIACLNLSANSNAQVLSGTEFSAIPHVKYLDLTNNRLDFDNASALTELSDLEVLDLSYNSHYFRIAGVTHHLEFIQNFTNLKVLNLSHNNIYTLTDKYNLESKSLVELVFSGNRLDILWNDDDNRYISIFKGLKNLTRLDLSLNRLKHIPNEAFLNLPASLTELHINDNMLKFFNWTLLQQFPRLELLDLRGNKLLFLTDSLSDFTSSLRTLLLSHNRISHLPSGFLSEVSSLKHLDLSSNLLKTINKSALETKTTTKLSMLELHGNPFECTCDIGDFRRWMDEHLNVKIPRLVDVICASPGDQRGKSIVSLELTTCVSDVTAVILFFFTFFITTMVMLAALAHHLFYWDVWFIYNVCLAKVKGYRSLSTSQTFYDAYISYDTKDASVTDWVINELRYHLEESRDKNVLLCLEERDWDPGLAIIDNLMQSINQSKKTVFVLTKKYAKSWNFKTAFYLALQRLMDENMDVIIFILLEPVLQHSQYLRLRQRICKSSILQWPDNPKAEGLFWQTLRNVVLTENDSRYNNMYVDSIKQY
Excerpt: as §1, §2

TLR7 [4] = biological target: T1, TLR7; experiment: TLR7 reporter gene assay (NF-κB induction, HEK-Blue-7 cells), agonism; conditions: Table 1; ND = not detected; read-out: TLR7 Agonism
Excerpt: (§3) NF-κB induction: The induction of NF-κB was quantified using HEK-Blue-7 cells and HEK-Blue-8 cells as previously described by us.^8,24 HEK293 cells were stably transfected with human TLR7 (or human TLR8), MD2, and secreted alkaline phosphatase (sAP), and were maintained in HEK-Blue™ Selection medium containing zeocin and normocin. Stable expression of secreted alkaline phosphatase (sAP) under control of NF-κB/AP-1 promoters is inducible by the TLR7 (or TLR8) agonists, and extracellular sAP in the supernatant is proportional to NF-κB induction. HEK-Blue cells were incubated at a density of […] in a volume of 80 μL/well, in 384-well, flat-bottomed, cell culture-treated microtiter plates until confluency was achieved, and subsequently graded concentrations of stimuli. sAP was assayed spectrophotometrically using an alkaline phosphatase-specific chromogen (present in HEK-detection medium as supplied by the vendor) at 620 nm.
as §1

TLR8 [5] = biological target: T2, TLR8; experiment: TLR8 reporter gene assay (NF-κB induction, HEK-Blue-8 cells), agonism
Excerpt: as §3, §1

CCN(CC)CCCC(C)Nc1ccnc2cc(Cl)ccc12 (stereo not shown) [Chloroquine, reference compound]
Inhibition of TNF-α and IL-1β production (in words) [1]: feeble inhibitor

Nc1nc2ccccc2c2c1nc(CCCCc1nc3c(N)nc4ccccc4c3n1Cc1ccccc1)n2Cc1ccccc1 [Compound 47b, 2,2′-(butane-1,4-diyl)bis(1-benzyl-1H-imidazo[4,5-c]quinolin-4-amine)]
TLR7 antagonistic activity (in words) (TLR7 [2]): potent antagonistic activity | TLR8 antagonistic activity (in words) (TLR8 [3]): potent antagonistic activity | IC50 (TLR8 [3]): 15.6 µM

Nc1nc2ccccc2c2c1nc(CCCCCCc1nc3c(N)nc4ccccc4c3n1Cc1ccccc1)n2Cc1ccccc1 [Compound 49a, 2,2′-(hexane-1,6-diyl)bis(1-benzyl-1H-imidazo[4,5-c]quinolin-4-amine)]
TLR7 antagonistic activity (in words) (TLR7 [2]): potent antagonistic activity | TLR8 antagonistic activity (in words) (TLR8 [3]): potent antagonistic activity | IC50 (TLR8 [3]): 10.9 µM

Nc1nc2ccccc2c2c1nc(CCCCCCCCCCc1nc3c(N)nc4ccccc4c3n1Cc1ccccc1)n2Cc1ccccc1 [Compound 49b, 2,2′-(decane-1,10-diyl)bis(1-benzyl-1H-imidazo[4,5-c]quinolin-4-amine)]
TLR7 antagonistic activity (in words) (TLR7 [2]): potent antagonistic activity | IC50 (TLR7 [2]; agonist gardiquimod 1 μg/mL, ND = not detected): 17.9 µM | TLR8 antagonistic activity (in words) (TLR8 [3]): potent antagonistic activity | IC50 (TLR8 [3]): 4.65 µM

CCCCc1nc2c(N)nc3ccc(NC(=O)CCCCCCCCCCC(=O)Nc4ccc5nc(N)c6nc(CCCC)n(Cc7ccc(CN)cc7)c6c5c4)cc3c2n1Cc1ccc(CN)cc1 [Compound 55c, N^1,N^12-bis(4-amino-1-(4-(aminomethyl)benzyl)-2-butyl-1H-imidazo[4,5-c]quinolin-8-yl) dodecanediamide]
EC50 (TLR7 [4]): 5.4 µM | TLR8-agonistic activity (in words) (TLR8 [5]): dual TLR7/TLR8 activity
